This is an account of results in patent US8846327B2, “Method of quantifying autoinducer-2” (priority 2007, dated 2014).

The test system of test [1] is AI-2. The settings on record: Niu C. et al., Lett. Appl. Microbiol. 2006; cited from earlier work.
Test [2] concerns Vibrio harveyi BB170 strain. The settings on record: Keersmaecker et al.; reporter strain of Vibrio harveyi; activity detected at considerably higher concentration than DPD; cited from earlier work.
Test [3] deals with Vibrio harveyi BB170 strain. Nature of the test: AI-2 reporter bioassay: photogenesis intensity of Vibrio harveyi BB170 reporter bacterium. The class given is cell-based. As to the method: An HMF authentic preparation (SIGMA) and a DPD authentic preparation (examination of synthesis was requested to OMM Scientific, and a product synthesized by the company was purchased) were added at a final concentration of 0.001 to 1000 μM to a Vibrio harveyi BB170 strain (purchased from ATCC, cultured under aerobic conditions at 30° C. in a marine medium (manufactured by Difco)) used as an autoinducer-2 (AI-2) reporter bacterium. The photogenesis intensity as the index of the AI-2 activity was measured in the same way as in Keersmaecker S. C. J. et al., J. Biol. Chem., 280(20), pp. 19563-19568, 2005. Namely, the Vibrio harveyi BB170 strain was diluted to 5000-fold as a final concentration with an AB medium (for example, see Bassler et al., Mol. Microbiol., 9, pp. 773-786, 1993), and the reporter bacterium liquid and the authentic preparations were mixed at a volume ratio of 9:1, followed by culturing with aerobic shaking at 30° C. Four hours later, the photogenesis intensity was measured using a chemiluminescence analyzer (Berthold, Mitharas LB940 (product name), detecting chemiluminescence). FIG. 1 illustrates a correlation between the concentrations of the HMF authentic preparation and DPD authentic preparation, and the photogenesis intensity. The HMF authentic preparation and DPD authentic preparation were prepared in glass containers. […]

As for `O=CC=Cc1ccccc1` [Cinnamaldehyde, 3-phenyl-2-propenal], the AI-2-inhibiting activity result in test [1] is “having an AI-2-inhibiting activity”.
Regarding `CC1=C(O)C(=O)CO1` [HMF, 4-hydroxy-5-methyl-3(2H)-furanone], the autoinducer-2 activity result in test [2] was “has an autoinducer-2 activity”. In test [3] (calibration curve prepared using glass containers), the “HMF concentration detectable in the bioassay” value is at most 0.1 µM. Further, the “HMF-induced photogenesis intensity of the reporter bacterium compared with autoinducer-2” value in test [3] (reporter bacterium light emission) is given as “lower than the photogenesis intensity induced by autoinducer-2”.
